# Patent publication US6413914B1, “Low foam N,N′-dialkylmalamide wetting agents” (Air Products and Chemicals, Inc., priority 2001, dated 2002)
# Legend:
# Assay type in all cases: physicochemical
# [1] = Concentration of surfactant in filtered saturated solution in distilled water; details: shaken ~24 hours
# Method: (§1) Saturated solutions of the materials of Examples 1-3 in distilled water were prepared. After shaking the solutions for ˜24 hours, the undissolved material was removed via filtration. Equilibrium surface tension data were obtained using the Wilhelmy plate method, described in L. Wilhelmy, Ann. Phys. 1863, 119, 177.
# [2] = Equilibrium surface tension, Wilhelmy plate method, saturated solutions in distilled water; details: for Limiting EST: saturated solution in distilled water, undissolved material filtered off, Wilhelmy plate, 25° C.
# Method: as §1
# The limiting surface tensions represent the lowest surface tensions in water which can be achieved for a given surfactant regardless of the amount of surfactant used and is used to evaluate the effectiveness of a surfactant. Lower surface tensions would allow for the elimination of defects upon application of a formulation onto low energy surfaces.
# [3] = Foaming properties, procedure based upon ASTM D 1173-53; details: for Initial Foam: foam height at completion of addition
# Method: The foaming properties of aqueous solutions of N,N′-di-iso-pentyl DL-malamide (Ex 2) and N,N′-di-2-ethylhexyl DL-malamide (Ex 3), were examined using a procedure based upon ASTM D 1173-53. In this test, a 0.1 wt % aqueous mixture of the surfactant was prepared, any undissolved solids were filtered off, and the filtrate was added from an elevated glass pipette to a glass receiver containing the same filtrate. The foam height was measured at the completion of the addition (“Initial Foam Height”) and the time required for the foam to dissipate at the air-liquid interface (“Time to 0 Foam”) was recorded. This test provides a comparison between the foaming characteristics of various surfactants. In general, in coatings, inks, adhesives, fountain solution, agricultural, and electronic chemical formulations, foam is undesirable because it complicates handling and can lead to coating and print defects, and to inefficient application of agricultural materials or electronic chemicals.
# The foaming properties of 0.1 wt % solutions of two representative nonionic surfactants, a commercial nonylphenol 15 mole ethoxylate surfactant and a commercial C8 alkyl glucoside surfactant were examined using the procedure based upon ASTM D 1173-53.
# [4] = 0.1 wt % aqueous mixture, filtered
Compound,Concentration of Surfactant in Solution [1] [wt. %],Limiting EST [2] [dyne/cm],lowering the equilibrium surface tension of water (in words) [2],"Time to zero foam [3, 4]","Foam after 5 min [3, 4] [cm]","Initial Foam [3, 4] [cm]",Time to zero foam ([3]; 0.1 wt % solution) [min]
"CCCCC(CC)CNC(=O)CC(O)C(=O)NCC(CC)CCCC (racemic) [Di-2-ethylhexyl DL-malamide (Ex 3), N,N′-Di-2-ethylhexyl DL-malamide]",<0.1,38.5,particularly effective,˜2 sec,0,1.5,
"CC(C)CNC(=O)CC(O)C(=O)NCC(C)C (racemic) [Di-isobutyl DL-malamide (Ex 1), N,N′-Di-iso-butyl DL-malamide]",<1.0,51.3,,,,,
"CC(C)CCNC(=O)CC(O)C(=O)NCCC(C)C (racemic) [Di-isopentyl DL-malamide (Ex 2), N,N′-Di-iso-pentyl DL-malamide]",<0.4,42.9,particularly effective,0.583 min,0,1.4,
C8 Alkyl glucoside [reference compound],,,,,1.0,1.9,37
Nonylphenol 15 mole ethoxylate [reference compound],,,,,4,5,>5
